According to patent publication EP0290169A2, “Diamineplatinum complexes with phosphonocarboxylate and substituted phosphonocarboxylate ligands as antitumor agents” (ENGELHARD CORPORATION, priority 1987, dated 1988):
“And” between values parts separate entries of the source, which are not always exact repeats. Identical values can stand only once.

Columns and labels:
Sarcoma 180 ascites = assay: S180a screening (Sarcoma 180 ascites tumor model), increase in life span; format: in vivo, CFW mice; settings: for Surv.: survivors on day of evaluation
Method: CFW mice, averaging 20 g, are innoculated on day zero with 0.2 mL of a freshly prepared saline suspension (0.15 M NaCI) containing 1 × 10^7 tumor cells/mL, or a total of 2 x 10^6 cells. On day I, the mice are injected with the test compound in the selected medium (usually water). Six mice are used per test dose, with six doses normally being run.
Also, on day one, two types of controls (6 mice/set are employed: (1) Normal (1 set): 0.5 mL of the solvent medium used for the test compound, and (2) Positive control (1 set): cis-[Pt(NH3)2Cl2] in saline at 8 mg/kg.
The effectiveness of a compound is measured in terms of the increase in life span (ILS) of the test animals relative to the controls calculated from the day of tumor inoculation (day zero). The day of evaluation is arbitrarily taken as that day corresponding to twice the mean life-span of the normal controls. This sets a practical upper limit of 100% on the ILS attainable. For calculation purposes, survivors on the day of evaluation are considered to have died on that day. The % ILS is formulated as: [formula]
ILS values above 50% represent activity. The positive controls must have an ILS of ≧ 50% for the test to be valid.

L1210 leukemia = assay: L1210 screening (L1210 leukemia tumor model), increase in life span; format: in vivo, Female CDF1 mice
Method: Female CDF1 mice (16-22 g) are injected with a suspension of 1 x 10^6 tumor cells in 0.5 mL of 0.15 M saline on day zero. On day one, the mice receive the test compound in 0.5 mL of the chosen medium (usually water). Six mice were used for each test dose, with six doses normally being run. Normal controls (six mice) receive tumor on day zero and 0.5 mL of the test medium on day one. Positive controls (six mice) receive tumor on day zero and 8 mg/kg cisplatin in 0.5 mL of 0.15 M saline on day one. All compound doses are adjusted for the actual average weight of the mice involved. Testing is terminated at three times the normal control mean life span. The percent increase in lifespan (ILS) is calculated as follows: %ILS = [(mean life span (test)/mean life span(control)-I]x100 A 25% ILS or greater indicates activity. The maximum possible ILS is 200%. The positive control must have an ILS of S 25% for the test to be considered valid.
The tumor line is maintained by transfer of 5 x 10^4- cells in 0.1 mL saline every seven days. DBA/2 (18-22 g) mice are employed for tumor transfers

[1] = Toxicity testing: BUN (kidney toxicity); format: in vivo, mice; settings: for BUN: change vs. controls
Method: (§1) (PVA = 2-phosphonovalerate). Based on the screening results, initial dosing was established at approximately twice the peak active dose in the SI80 screen. […] WBC was measured by lysing the red blood cells with 3% acetic acid and counting the white cells using a haemocytometer.
(§2) Data obtained for Na[Pt(trans-R,R-dach)(PVA)] was taken at 240 mg/kg. […] Average cage weights for the test mice were also taken over the seven day test period.

[2] = Toxicity testing: WBC (myelosuppression); format: in vivo, mice; settings: for WBC: change vs. controls
Method: as §1, §2

[3] = Toxicity testing: hematocrit and average cage weights; format: in vivo, mice; settings: 240 mg/kg
Method: (PVA = 2-phosphonovalerate). Based on the screening results, initial dosing was established at approximately twice the peak active dose in the SI80 screen. Both a cisplatin control, also run at twice the peak active dose, and a negative control experiment, were run for comparative purposes. BUN was measured by using a kit manufactured by Harleco (No. 64667). WBC was measured by lysing the red blood cells with 3% acetic acid and counting the white cells using a haemocytometer.
Data obtained for Na[Pt(trans-R,R-dach)(PVA)] was taken at 240 mg/kg. […] Myelosuppresion however, was apparent. The WBC depression for this compound was 63% relative to controls. […] Average cage weights for the test mice were also taken over the seven day test period. The mice lost an average of 5.9 g (27.3%) of body weight over this time.

[4] = dose 40.00 mg/kg on day 1, vehicle water
[5] = dose 80.00 mg/kg on day 1, vehicle water
[6] = dose 160.00 mg/kg on day 1, vehicle water
[7] = dose 10.00 mg/kg on day 1, vehicle water
[8] = dose 10.00 mg/kg on day 1, vehicle water, survivors
[9] = dose 20.00 mg/kg on day 1, vehicle water
[10] = dose 20.00 mg/kg on day 1, vehicle water, survivors
[11] = dose 40.00 mg/kg on day 1, vehicle water, survivors
[12] = dose 80.00 mg/kg on day 1, vehicle water, survivors
[13] = dose 160.00 mg/kg on day 1, vehicle water, survivors
[14] = dose 320.00 mg/kg on day 1, vehicle water
[15] = dose 320.00 mg/kg on day 1, vehicle water, survivors

Row | Molecule | %ILS (Sarcoma 180 ascites; [4]) | Surv. (Sarcoma 180 ascites; [4]) | %ILS (Sarcoma 180 ascites; [5]) | Surv. (Sarcoma 180 ascites; [5]) | %ILS (Sarcoma 180 ascites; [6]) | Surv. (Sarcoma 180 ascites; [6]) | %ILS (L1210 leukemia; [7]) | Surv. (L1210 leukemia; [8]) | %ILS (L1210 leukemia; [9]) | Surv. (L1210 leukemia; [10]) | %ILS (L1210 leukemia; [4]) | Surv. (L1210 leukemia; [11]) | %ILS (L1210 leukemia; [5]) | Surv. (L1210 leukemia; [12]) | %ILS (L1210 leukemia; [6]) | Surv. (L1210 leukemia; [13]) | %ILS (L1210 leukemia; [14]) | Surv. (L1210 leukemia; [15]) | %ILS (Sarcoma 180 ascites; [7]) | Surv. (Sarcoma 180 ascites; [7]) | also measured
1 | CCCC1C(=O)[O][Pt][O]P1(=O)[O-].NC1CCCCC1N.[Na+] (mixture of isomers) [Ex 18, Na[Pt(trans-R,R-dach)(2-phosphonovaierate)]] | 77% | 1/ 6 | 92% | 5/ 6 | 44% | 1/ 6 | 36% | 0/ 6 | 25% | 0/ 6 | 33% | 0/ 6 | 33% | 0/ 6 | 109% | 0/ 6 | 24% | 1/ 6 |  |  | BUN decrease vs. controls ([1]; 240 mg/kg): 4%; average BUN level ([1]; 240 mg/kg, test mice): 34.7 mg/dL; BUN ([1]; dose 240 mg/kg): -4%; kidney toxicity ([1]; judged from BUN elevation): not kidney toxic at this dose; WBC depression relative to controls ([2]; 240 mg/kg): 63%; WBC ([2]; dose 240 mg/kg): -63%; hematocrits (ratio of packed red blood cells to volume of whole blood) [3]: low hematocrits
2 | CCC(C)(C(=O)[O-])P(=O)([O-])[O-].N[C@@H]1CCCC[C@H]1N.[Na+].[Pt+2] (relative stereo) [Ex 22, Na[Pt(trans-R,R-dach)(2-methyl-2-phosphonobutyrate)]] | 82% | 4/ 6 | 100% | 6/ 6 | 86% | 2/ 6 | 45% | 0/ 6 | 35% | 0/ 6 | 70% | 1/ 6 | 94% | 1/ 6 | 114% | 3/ 6 | -39% | 0/ 6 | 28% | 1/ 6 | %ILS (Sarcoma 180 ascites; [9]): 20%; Surv. (Sarcoma 180 ascites; [9]): 0/ 6; %ILS (Sarcoma 180 ascites; [14]): -78%; Surv. (Sarcoma 180 ascites; [14]): 0/ 6
3 | N[C@@H]1CCCC[C@H]1N.O=C1[O][Pt][O]P1(=O)[O-].[Na+] [Ex 20, Na[Pt(trans-R,R-dach)(phosphonoformate)]] | 7% | 0/ 6 | 18% | 0/ 6 | 59% | 0/ 6 | -17% | 0/ 6 | -20% | 0/ 6 | -14% | 0/ 6 | -7% | 0/ 6 | 11% | 0/ 6 | 20% | 0/ 6 | 6% | 0/ 6 | %ILS (Sarcoma 180 ascites; [9]): -5%; Surv. (Sarcoma 180 ascites; [9]): 0/ 6; %ILS (Sarcoma 180 ascites; [14]): 55%; Surv. (Sarcoma 180 ascites; [14]): 0/ 6
4 | Na[Pt(trans-R, R-dach)(2-phosphono-1,7-heptanedicarboxylate)] [Ex 23] | 45% | 2/ 6 | 86% | 4/ 6 | 34% | 4/ 6 | 59% | 0/ 6 | 67% | 0/ 6 | 88% | 0/ 6 | 133% | 3/ 6 | 161% | 3/ 6 | -32% | 0/ 6 | 20% | 0/ 6 | %ILS (Sarcoma 180 ascites; [9]): 31%; Surv. (Sarcoma 180 ascites; [9]): 0/ 6; %ILS (Sarcoma 180 ascites; [14]): -37%; Surv. (Sarcoma 180 ascites; [14]): 1/ 6
5 | cis-[Pt(NH3)2Cl2] [Cisplatin, reference compound] |  |  |  |  |  |  |  |  |  |  |  |  |  |  |  |  |  |  |  |  | POS. CONT. %ILS (Sarcoma 180 ascites; positive control of the same test: cis-[Pt(NH3)2Cl2] in saline at 8 mg/kg on day 1, listed as POS. CONT., 8 mg/kg): 89% and 85% and 70% and 55% and 94% and 74% and 86% and 68%; POS. CONT. Surv. (Sarcoma 180 ascites; positive control of the same test: cis-[Pt(NH3)2Cl2] in saline at 8 mg/kg on day 1, survivors, listed as POS. CONT., 8 mg/kg): 4/ 6 and 3/ 6 and 2/ 6 and 1/ 6; POS. CONT. Surv. (L1210 leukemia; positive control of the same test: 8 mg/kg cisplatin in 0.15 M saline on day 1, survivors, listed as POS. CONT.): 0/ 6 and 1/ 6 and 3/ 6 and 2/ 6; BUN ([1]; dose 15 mg/kg): +98%; WBC ([2]; dose 15 mg/kg): -7%
